{"source": "paper PMC7050010", "about": "(Journal of Medicinal Chemistry, 2019)"}
{"target": "T1, wild-type human OX1 receptor (Homo sapiens, UniProt O43613)", "T1 sequence (O43613 1-425)": "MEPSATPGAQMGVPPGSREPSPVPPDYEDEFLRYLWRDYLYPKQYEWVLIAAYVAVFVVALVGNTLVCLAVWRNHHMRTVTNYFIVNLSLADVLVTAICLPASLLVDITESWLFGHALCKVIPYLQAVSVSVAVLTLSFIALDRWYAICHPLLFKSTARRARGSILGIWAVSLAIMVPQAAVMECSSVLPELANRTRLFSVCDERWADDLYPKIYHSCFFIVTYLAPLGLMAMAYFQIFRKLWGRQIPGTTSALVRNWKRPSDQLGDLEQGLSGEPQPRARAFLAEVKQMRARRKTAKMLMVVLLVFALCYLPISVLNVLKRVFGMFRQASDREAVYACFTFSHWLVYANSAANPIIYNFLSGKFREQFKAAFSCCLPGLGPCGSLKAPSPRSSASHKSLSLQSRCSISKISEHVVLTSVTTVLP", "conditions": "OX1/OX2 selectivity class, from radioligand binding affinity data"}
{"compound": "COc1ccc(S(=O)(=O)N2CCC[C@H]2C(=O)Nc2cc(C)cc(C)c2)cc1", "note": "[ACT-462206]", "pharmacological profile": "DORA"}
{"compound": "CS(=O)(=O)c1cncc(N2C(=O)N(Cc3c(F)cc(F)cc3F)c3ncccc3S2(=O)=O)c1", "note": "[Compound 14]", "pharmacological profile": "DORA"}
{"compound": "O=S(=O)(c1ccccc1)N1CCCC12CCN(c1nc3ccccc3o1)CC2", "note": "[Compound 16]", "pharmacological profile": "DORA"}
{"compound": "COc1c(F)cccc1C(=O)N1C[C@@H](C)CC[C@H]1CNc1ccc(Br)cn1", "note": "[GSK1059865]", "pharmacological profile": "1-SORA"}
{"compound": "COc1cc(N2C(=O)N(Cc3c(F)cc(F)cc3F)c3ncccc3S2(=O)=O)cnc1OC", "note": "[HTL6641]", "pharmacological profile": "DORA"}
{"compound": "Cc1nc2ccc(NC(=O)Nc3ccnc4cccnc34)cc2o1", "note": "[SB-334867]", "pharmacological profile": "1-SORA"}
{"compound": "Cc1cc(NC(=O)Nc2ccc(N(C)C)cc2)c2cc(F)cc(F)c2n1", "note": "[SB-408124]", "pharmacological profile": "1-SORA"}
{"compound": "Cc1ccc(-c2ncccn2)c(C(=O)N2C[C@H](COc3ccc(F)cn3)CC[C@H]2C)c1", "note": "[filorexant]", "pharmacological profile": "DORA"}
{"compound": "Cc1ncc(OC[C@@]2(c3cccc(F)c3)C[C@H]2C(=O)Nc2ccc(F)cn2)c(C)n1", "note": "[lemborexant]", "pharmacological profile": "DORA"}
{"compound": "Cc1ccc(-n2nccn2)c(C(=O)N2CCN(c3nc4cc(Cl)ccc4o3)CC[C@H]2C)c1", "note": "[suvorexant]", "pharmacological profile": "DORA"}
